The test system of one experiment is E. coli strain 25922. Description: MIC by broth microdilution, E. coli strain 25922. In kind it is cell-based. The procedure, abridged:
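CLSI broth microdilution in cation-adjusted Mueller-Hinton broth, inoculum about 5×10^5 CFU/mL, 10% DMSO from the diluted series, 20 h at 35-37° C. MIC is the lowest concentration preventing visible growth, read by eye and at 600 nm.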
On the technique in general: Dilution methods test growth across graded concentrations, often in twofold steps.

The next experiment has as its system E. coli containing KPC-2. Description: MIC by broth microdilution, E. coli containing KPC-2 (Ec KPC2 Iso). In kind it is cell-based. The conditions noted are these: Escherichia coli, read-out: Ec KPC2 Iso (MIC), E. coli containing KPC-2 (carbapenemase from Klebsiella pneumoniae). Summed up:
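Host E. coli BW25113 pspB carrying multicopy pBAD18-kan plasmid with constitutive TEM-promoter KPC-2 expression (periplasmic signal sequence); broth microdilution per CLSI in cation-adjusted Mueller-Hinton broth, inoculum ~5×10^5 CFU/mL, compounds twofold serially diluted from DMSO masters (10% DMSO in dilution series added).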

[1] abbreviates: Escherichia coli, 25922, E. coli strain 25922, read-out: Ec 25922 (MIC).

≈ marks a conversion by molar mass, not a printed value. Where two headings read alike, the source gives them in different places.

As a reminder, the MIC is the lowest concentration that inhibits growth of the organism.

In the case of `CN(Cc1ccccc1)Cc1cnn(C[C@@H]2[C@H](NC(=O)/C(=N\OC(C)(C)C(=O)O)c3csc(N)n3)C(=O)N2S(=O)(=O)O)n1` [Example 83, 2-(((Z)-(1-(2-aminothiazol-4-yl)-2-(((2R,3S)-2-((4-((benzyl(methyl)amino)methyl)-2H-1,2,3-triazol-2-yl)methyl)-4-oxo-1-sulfoazetidin-3-yl)amino)-2-oxoethylidene)amino)oxy)-2-methylpropanoic acid], the MIC with E. coli strain 25922 (setting [1]) and in the experiment with E. coli containing KPC-2 was 32 µg/mL (≈ 50.3 µM) throughout.
For `N=C(NC1CCNCC1)c1ccc(OC[C@H](O/N=C(\C(=O)N[C@@H]2C(=O)N(S(=O)(=O)O)[C@@H]2Cn2ncc(CN)n2)c2csc(N)n2)C(=O)O)cc1` [Example 84, (S)-2-(((Z)-(2-(((2R,3S)-2-((4-(aminomethyl)-2H-1,2,3-triazol-2-yl)methyl)-4-oxo-1-sulfoazetidin-3-yl)amino)-1-(2-aminothiazol-4-yl)-2-oxoethylidene)amino)oxy)-3-(4-(N-(piperidin-4-yl)carbamimidoyl)phenoxy)propanoic acid], the MIC in the experiment on E. coli strain 25922 (setting [1]) and in the experiment with E. coli containing KPC-2 was 0.5 µg/mL (≈ 0.68 µM) each time.
For `Nc1nc(/C(=N/OC2(C(=O)O)CC2)C(=O)N[C@@H]2C(=O)N(S(=O)(=O)O)[C@@H]2Cn2ncc(CNCC3CNC3)n2)cs1` [Example 85, 1-(((Z)-(1-(2-aminothiazol-4-yl)-2-(((2R,3S)-2-((4-(((azetidin-3-ylmethyl)amino)methyl)-2H-1,2,3-triazol-2-yl)methyl)-4-oxo-1-sulfoazetidin-3-yl)amino)-2-oxoethylidene)amino)oxy)cyclopropanecarboxylic acid], the MIC in the experiment on E. coli strain 25922 (setting [1]) and in the experiment with E. coli containing KPC-2 was 0.5 µg/mL (≈ 0.835 µM) each time.
On to `CC(C)(O/N=C(\C(=O)N[C@@H]1C(=O)N(S(=O)(=O)O)[C@@H]1CN1CC[C@@H](N)C1=O)c1csc(N)n1)C(=O)O` [Example 86, 2-(((Z)-(2-(((2R,3S)-2-(((R)-3-amino-2-oxopyrrolidin-1-yl)methyl)-4-oxo-1-sulfoazetidin-3-yl)amino)-1-(2-aminothiazol-4-yl)-2-oxoethylidene)amino)oxy)-2-methylpropanoic acid], for which the MIC in the experiment with E. coli strain 25922 (setting [1]) and with E. coli containing KPC-2 was 1 µg/mL (≈ 1.87 µM) throughout.
On to `CC(C)(O/N=C(\C(=O)N[C@@H]1C(=O)N(S(=O)(=O)O)[C@@H]1Cn1cc[nH]c1=O)c1csc(N)n1)C(=O)O` [Example 87, 2-(((Z)-(1-(2-aminothiazol-4-yl)-2-oxo-2-(((3S,4R)-2-oxo-4-((2-oxo-2,3-dihydro-1H-imidazol-1-yl)methyl)-1-sulfoazetidin-3-yl)amino)ethylidene)amino)oxy)-2-methylpropanoic acid], for which the results for the MIC in the experiment with E. coli strain 25922 (setting [1]) and with E. coli containing KPC-2 were 1 µg/mL (≈ 1.93 µM) and 0.5 µg/mL (≈ 0.966 µM), respectively.
For `CC(C)(O/N=C(\C(=O)N[C@@H]1C(=O)N(S(=O)(=O)O)[C@@H]1CN1CC[C@@H](NC(=N)N)C1=O)c1csc(N)n1)C(=O)O` [Example 88, 2-(((Z)-(1-(2-aminothiazol-4-yl)-2-(((2R,3S)-2-(((R)-3-guanidino-2-oxopyrrolidin-1-yl)methyl)-4-oxo-1-sulfoazetidin-3-yl)amino)-2-oxoethylidene)amino)oxy)-2-methylpropanoic acid], in that order: 2 µg/mL (≈ 3.47 µM) and 4 µg/mL (≈ 6.95 µM).
For `Nc1nc(/C(=N/OC2(C(=O)O)CC2)C(=O)N[C@@H]2C(=O)N(S(=O)(=O)O)[C@@H]2Cn2ncc(CN[C@@H]3CCNC3)n2)cs1` [Example 89, 1-(((Z)-(1-(2-aminothiazol-4-yl)-2-oxo-2-(((3S,4R)-2-oxo-4-((4-(((R)-pyrrolidin-3-ylamino)methyl)-2H-1,2,3-triazol-2-yl)methyl)-1-sulfoazetidin-3-yl)amino)ethylidene)amino)oxy)cyclopropanecarboxylic acid], the MIC with E. coli strain 25922 (setting [1]) was 0.5 µg/mL (≈ 0.835 µM); with E. coli containing KPC-2 it was 1 µg/mL (≈ 1.67 µM).
Regarding `NCCCNCc1cnn(C[C@@H]2[C@H](NC(=O)/C(=N\OC3(C(=O)O)CC3)c3csc(N)n3)C(=O)N2S(=O)(=O)O)n1` [Example 90, 1-(((Z)-(2-(((2R,3S)-2-((4-(((3-aminopropyl)amino)methyl)-2H-1,2,3-triazol-2-yl)methyl)-4-oxo-1-sulfoazetidin-3-yl)amino)-1-(2-aminothiazol-4-yl)-2-oxoethylidene)amino)oxy)cyclopropanecarboxylic acid], the MIC with E. coli strain 25922 (setting [1]) and with E. coli containing KPC-2 was 0.25 µg/mL (≈ 0.426 µM) throughout.
Take `Nc1nc(/C(=N/OC2(C(=O)O)CC2)C(=O)N[C@@H]2C(=O)N(S(=O)(=O)O)[C@@H]2Cn2ncc(CN[C@H]3CCNC3)n2)cs1` [Example 91, 1-(((Z)-(1-(2-aminothiazol-4-yl)-2-oxo-2-(((3S,4R)-2-oxo-4-((4-(((S)-pyrrolidin-3-ylamino)methyl)-2H-1,2,3-triazol-2-yl)methyl)-1-sulfoazetidin-3-yl)amino)ethylidene)amino)oxy)cyclopropanecarboxylic acid]: the values for the MIC in the experiment on E. coli strain 25922 (setting [1]) and in the experiment on E. coli containing KPC-2 were 0.125 µg/mL (≈ 0.209 µM) and 0.25 µg/mL (≈ 0.418 µM), respectively.
With `NCC1CN(Cc2cnn(C[C@@H]3[C@H](NC(=O)/C(=N\OC4(C(=O)O)CC4)c4csc(N)n4)C(=O)N3S(=O)(=O)O)n2)C1` [Example 92, 1-(((Z)-(2-(((2R,3S)-2-((4-((3-(aminomethyl)azetidin-1-yl)methyl)-2H-1,2,3-triazol-2-yl)methyl)-4-oxo-1-sulfoazetidin-3-yl)amino)-1-(2-aminothiazol-4-yl)-2-oxoethylidene)amino)oxy)cyclopropanecarboxylic acid], the MIC with E. coli strain 25922 (setting [1]) was determined as 0.25 µg/mL (≈ 0.418 µM); with E. coli containing KPC-2 it was 0.5 µg/mL (≈ 0.835 µM).
On to `Nc1nc(/C(=N/OC2(C(=O)O)CC2)C(=O)N[C@@H]2C(=O)N(S(=O)(=O)O)[C@@H]2Cn2ncc(CN[C@H]3C[C@H](N)C3)n2)cs1` [Example 93, 1-(((Z)-(2-(((2R,3S)-2-((4-((((1 r,3R)-3-aminocyclobutyl)amino)methyl)-2H-1,2,3-triazol-2-yl)methyl)-4-oxo-1-sulfoazetidin-3-yl)amino)-1-(2-aminothiazol-4-yl)-2-oxoethylidene)amino)oxy)cyclopropanecarboxylic acid], for which the MIC was determined as 0.25 µg/mL (≈ 0.418 µM) in the experiment with E. coli strain 25922 (setting [1]) and 0.5 µg/mL (≈ 0.835 µM) in the experiment on E. coli containing KPC-2.
For `NCCCNCc1cnn(C[C@@H]2[C@H](NC(=O)/C(=N\OC3(C(=O)O)CC3)c3nsc(N)n3)C(=O)N2S(=O)(=O)O)n1` [Example 94, (((Z)-(1-(5-amino-1,2,4-thiadiazol-3-yl)-2-(((2R,3S)-2-((4-(((3-aminopropyl)amino)methyl)-2H-1,2,3-triazol-2-yl)methyl)-4-oxo-1-sulfoazetidin-3-yl)amino)-2-oxoethylidene)amino)oxy)cyclopropanecarboxylic acid], in that order: 0.5 µg/mL (≈ 0.851 µM) and 1 µg/mL (≈ 1.7 µM).
In the case of `Nc1nc(/C(=N/OC2(C(=O)O)CC2)C(=O)N[C@@H]2C(=O)N(S(=O)(=O)O)[C@@H]2CN2C(=O)COC2=O)cs1` [Example 95, 1-(((Z)-(1-(2-aminothiazol-4-yl)-2-(((2R,3S)-2-((2,4-dioxooxazolidin-3-yl)methyl)-4-oxo-1-sulfoazetidin-3-yl)amino)-2-oxoethylidene)amino)oxy)cyclopropanecarboxylic acid], the MIC in the experiment on E. coli strain 25922 (setting [1]) came out at 0.25 µg/mL (≈ 0.47 µM); in the experiment with E. coli containing KPC-2, 0.125 µg/mL (≈ 0.235 µM).
On to `NCCCNCc1nnn(C[C@@H]2[C@H](NC(=O)/C(=N\OC3(C(=O)O)CC3)c3csc(N)n3)C(=O)N2S(=O)(=O)O)n1` [Example 96, 1-(((Z)-(2-(((2R,3S)-2-((5-(((3-aminopropyl)amino)methyl)-2H-tetrazol-2-yl)methyl)-4-oxo-1-sulfoazetidin-3-yl)amino)-1-(2-aminothiazol-4-yl)-2-oxoethylidene)amino)oxy)cyclopropanecarboxylic acid], for which the MIC came to 0.25 µg/mL (≈ 0.425 µM) with E. coli strain 25922 (setting [1]) and 1 µg/mL (≈ 1.7 µM) with E. coli containing KPC-2.
On to `NCCNC[C@@H]1CN(C[C@@H]2[C@H](NC(=O)/C(=N\OC3(C(=O)O)CC3)c3csc(N)n3)C(=O)N2S(=O)(=O)O)C(=O)O1` [Example 97, 1-(((Z)-(2-(((2R,3S)-2-(((R)-5-(((2-aminoethyl)amino)methyl)-2-oxooxazolidin-3-yl)methyl)-4-oxo-1-sulfoazetidin-3-yl)amino)-1-(2-aminothiazol-4-yl)-2-oxoethylidene)amino)oxy)cyclopropanecarboxylic acid], for which the MIC in the experiment with E. coli strain 25922 (Escherichia coli, 25922, read-out: Ec 25922 (MIC)) came out at 0.125 µg/mL (≈ 0.212 µM); in the experiment with E. coli containing KPC-2, 0.125 µg/mL (≈ 0.212 µM).
Consider `Cn1cnn(C[C@@H]2[C@H](NC(=O)/C(=N\OC(C)(C)C(=O)O)c3csc(N)n3)C(=O)N2S(=O)(=O)O)c1=O` [Example 98, 2-(((Z)-(1-(2-aminothiazol-4-yl)-2-(((2R,3S)-2-((4-methyl-5-oxo-4,5-dihydro-1H-1,2,4-triazol-1-yl)methyl)-4-oxo-1-sulfoazetidin-3-yl)amino)-2-oxoethylidene)amino)oxy)-2-methylpropanoic acid], for which the MIC with E. coli strain 25922 (setting [1]) came to 2 µg/mL (≈ 3.76 µM); with E. coli containing KPC-2 it was 0.5 µg/mL (≈ 0.939 µM).
Regarding `CN(C)Cc1cnn(C[C@@H]2[C@H](NC(=O)/C(=N\OC(C)(C)C(=O)O)c3csc(N)n3)C(=O)N2S(=O)(=O)O)n1` [Example 99, 2-(((Z)-(1-(2-aminothiazol-4-yl)-2-(((2R,3S)-2-((4-((dimethylamino)methyl)-2H-1,2,3-triazol-2-yl)methyl)-4-oxo-1-sulfoazetidin-3-yl)amino)-2-oxoethylidene)amino)oxy)-2-methylpropanoic acid], the MIC is 2 µg/mL (≈ 3.57 µM) in the experiment on E. coli strain 25922 (setting [1]) and 4 µg/mL (≈ 7.15 µM) with E. coli containing KPC-2.
With `CNCc1cnn(C[C@@H]2[C@H](NC(=O)/C(=N\OC(C)(C)C(=O)O)c3csc(N)n3)C(=O)N2S(=O)(=O)O)n1` [Example 100, 2-(((Z)-(1-(2-aminothiazol-4-yl)-2-(((2R,3S)-2-((4-((methylamino)methyl)-2H-1,2,3-triazol-2-yl)methyl)-4-oxo-1-sulfoazetidin-3-yl)amino)-2-oxoethylidene)amino)oxy)-2-methylpropanoic acid], the MIC in the experiment on E. coli strain 25922 (setting [1]) was determined as 1 µg/mL (≈ 1.83 µM); in the experiment on E. coli containing KPC-2 it was 4 µg/mL (≈ 7.33 µM).

For the origin of these results see patent US10369138B2, “Monobactam organic compounds for the treatment of bacterial infections” (Novartis AG, priority 2014, dated 2019).
